Experimental data reported in patent publication US20080009418A1, “Selective Inhibitors” (Alchemia LTD., priority 2004, published 2008).

How the values were obtained:
Human δ-opioid (DOP) = target: T1, Human δ-opioid (DOP) (Homo sapiens, UniProt P41143); assay: Radioligand binding, human δ-opioid (DOP) membranes, FlashPlate, [3H]-Bremazocine; settings: compound at 10 μM, [3H]-Bremazocine
T1 construct: purchased Perkin Elmer Biosignal
In short: (§1)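 Cloned human receptor membranes were coated onto FlashPlate wells and incubated with radioligand and compound (added from a 0.5 mM DMSO daughter plate) for 1 hour at room temperature in the dark. Scintillation counting gave percent inhibition, with DMSO defining total and reference ligand defining non-specific binding.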

Human κ-Opioid (KOP) = target: T2, Human κ-Opioid (KOP) (Homo sapiens, UniProt P41145); assay: Radioligand binding, human κ-opioid (KOP) membranes, filtration, [3H]-Diprenorphine; settings: compound at 10 μM, [3H]-Diprenorphine
T2 construct: purchased Perkin Elmer Biosignal
In short: (§2)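 Membranes from cloned human receptors were incubated with compound and radioligand for 1 hour at room temperature. Bound ligand was collected on 0.3% PEI-soaked filters, washed with cold 50 mM Tris-HCl pH 7.4, and counted by scintillation. Percent inhibition was computed against DMSO totals and reference-ligand nonspecific wells.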

Human Melanocortin (MC3) = target: T3, Human Melanocortin (MC3) (Homo sapiens, UniProt P41968); assay: Radioligand binding, human melanocortin MC3 membranes, FlashPlate, [125I]-NDP-αMSH; settings: compound at 10 μM, [125I]-NDP-αMSH
T3 construct: purchased Perkin Elmer Biosignal
In short: as §1

Human Melanocortin (MC4) = target: T4, Human Melanocortin (MC4) (Homo sapiens, UniProt P32245); assay: Radioligand binding, human melanocortin MC4 membranes, FlashPlate, [125I]-NDP-αMSH; settings: compound at 10 μM, [125I]-NDP-αMSH
T4 construct: purchased Perkin Elmer Biosignal
In short: as §1

Human melanocortin (MC5) = target: T5, Human melanocortin (MC5) (Homo sapiens, UniProt P33032); assay: Radioligand binding, human melanocortin MC5 membranes, FlashPlate, [125I]-NDP-αMSH; settings: compound at 10 μM, [125I]-NDP-αMSH
T5 construct: purchased Perkin Elmer Biosignal
In short: as §1

[1] = target: T6, Human melanin-concentrating hormone (MCH1) (Homo sapiens, UniProt Q99705); assay: Radioligand binding, human melanin-concentrating hormone MCH1 membranes, FlashPlate, [125I]-S36057; settings: compound at 10 μM; for A6: inhibition of radioligand binding, human melanin-concentrating hormone (MCH1): [125I]-S36057
T6 construct: purchased Perkin Elmer Biosignal
In short: as §1

Human μ-opioid (MOP) = target: T7, Human μ-opioid (MOP) (Homo sapiens, UniProt P35372); assay: Radioligand binding, human μ-opioid (MOP) membranes, FlashPlate, [3H]-Naloxone; settings: compound at 10 μM, [3H]-Naloxone
T7 construct: purchased Perkin Elmer Biosignal
In short: as §1

Human neurokinin (NK1) = target: T8, Human neurokinin (NK1) (Homo sapiens, UniProt P25103); assay: Radioligand binding, human neurokinin NK1 membranes, filtration, [125I]-Substance P; settings: compound at 10 μM, [125I]-Substance P
T8 construct: purchased Perkin Elmer Biosignal
In short: as §2

[2] = target: T9, Human neuropeptide Y (NPY-Y1) (Homo sapiens, UniProt P25929); assay: Radioligand binding, human neuropeptide Y NPY-Y1 membranes, FlashPlate, [125I]-PYY; settings: compound at 10 μM, [125I]-PYY
T9 construct: purchased Perkin Elmer Biosignal
T9 sequence (P25929 1-384): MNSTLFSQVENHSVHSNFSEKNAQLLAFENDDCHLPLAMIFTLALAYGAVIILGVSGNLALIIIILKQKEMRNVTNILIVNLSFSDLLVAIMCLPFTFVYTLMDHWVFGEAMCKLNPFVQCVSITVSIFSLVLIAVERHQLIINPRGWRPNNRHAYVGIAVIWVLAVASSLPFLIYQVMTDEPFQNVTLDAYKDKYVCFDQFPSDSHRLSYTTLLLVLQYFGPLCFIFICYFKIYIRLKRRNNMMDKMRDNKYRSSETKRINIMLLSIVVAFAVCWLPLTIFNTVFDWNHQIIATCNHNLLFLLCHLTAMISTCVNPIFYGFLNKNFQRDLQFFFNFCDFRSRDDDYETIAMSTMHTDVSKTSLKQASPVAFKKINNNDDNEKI
In short: as §1

Human opioid (ORL1) = target: T10, Human opioid (ORL1) (Homo sapiens, UniProt P41146); assay: Radioligand binding, human opioid ORL1 membranes, FlashPlate, [125I]-Nociceptin; settings: compound at 10 μM, [125I]-Nociceptin
T10 construct: purchased Perkin Elmer Biosignal
In short: as §1

Mouse urotensin (mUR2) = target: T11, Mouse urotensin (mUR2) (Mus musculus, UniProt Q8VIH9); assay: Radioligand binding, mouse urotensin mUR2 membranes, FlashPlate, [125I]-Urotensin II; settings: compound at 10 μM, [125I]-Urotensin II
T11 construct: purchased Perkin Elmer Biosignal
T11 sequence (Q8VIH9 1-385): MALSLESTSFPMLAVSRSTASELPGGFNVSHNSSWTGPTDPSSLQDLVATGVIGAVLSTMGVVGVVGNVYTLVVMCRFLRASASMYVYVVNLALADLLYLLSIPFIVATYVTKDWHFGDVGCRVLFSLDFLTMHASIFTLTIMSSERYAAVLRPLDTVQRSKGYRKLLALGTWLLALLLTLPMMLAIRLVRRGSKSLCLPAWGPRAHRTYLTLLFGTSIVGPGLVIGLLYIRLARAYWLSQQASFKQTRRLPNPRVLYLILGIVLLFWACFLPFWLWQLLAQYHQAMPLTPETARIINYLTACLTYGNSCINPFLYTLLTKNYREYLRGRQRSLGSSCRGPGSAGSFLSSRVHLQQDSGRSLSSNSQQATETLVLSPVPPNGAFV
In short: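 Cloned mouse urotensin (mUR2) receptor membranes from Perkin Elmer Biosignal were immobilized in FlashPlate microplates using a proprietary coating. Each well got 19.5 μl buffer, then 0.5 μl of DMSO, reference ligand, or compound. Adding 5 μl of [125I]-Urotensin II, diluted to 5× final concentration in binding buffer, started binding. Plates were sealed with TopSeal-A and incubated 1 hour at room temperature in the dark. Wells were counted for 30 seconds each on a TopCount after a 60-second delay, and percentage inhibition was calculated.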

T8 sequence (P25103 whole entry): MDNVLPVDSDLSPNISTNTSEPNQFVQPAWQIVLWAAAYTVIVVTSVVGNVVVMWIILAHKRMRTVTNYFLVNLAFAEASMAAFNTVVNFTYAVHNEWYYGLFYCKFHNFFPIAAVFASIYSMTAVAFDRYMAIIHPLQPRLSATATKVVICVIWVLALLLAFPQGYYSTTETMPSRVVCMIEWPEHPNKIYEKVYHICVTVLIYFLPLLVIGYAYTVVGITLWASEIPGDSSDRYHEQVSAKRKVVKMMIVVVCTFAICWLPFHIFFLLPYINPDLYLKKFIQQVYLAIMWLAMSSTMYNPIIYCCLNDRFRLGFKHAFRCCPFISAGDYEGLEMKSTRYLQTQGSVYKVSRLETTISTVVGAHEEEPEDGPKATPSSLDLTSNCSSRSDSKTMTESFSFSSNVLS
T2 sequence (P41145 whole entry): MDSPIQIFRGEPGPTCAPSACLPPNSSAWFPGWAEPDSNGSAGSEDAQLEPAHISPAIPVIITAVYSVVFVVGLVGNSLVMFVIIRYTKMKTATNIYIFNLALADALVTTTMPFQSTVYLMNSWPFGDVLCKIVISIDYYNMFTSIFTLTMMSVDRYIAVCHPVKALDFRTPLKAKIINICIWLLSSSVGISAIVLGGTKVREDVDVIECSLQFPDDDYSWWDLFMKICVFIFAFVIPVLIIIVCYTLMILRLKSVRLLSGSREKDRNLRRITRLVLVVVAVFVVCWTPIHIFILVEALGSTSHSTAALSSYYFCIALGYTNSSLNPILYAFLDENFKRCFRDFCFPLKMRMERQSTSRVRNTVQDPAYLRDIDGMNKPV
T1 sequence (P41143 whole entry): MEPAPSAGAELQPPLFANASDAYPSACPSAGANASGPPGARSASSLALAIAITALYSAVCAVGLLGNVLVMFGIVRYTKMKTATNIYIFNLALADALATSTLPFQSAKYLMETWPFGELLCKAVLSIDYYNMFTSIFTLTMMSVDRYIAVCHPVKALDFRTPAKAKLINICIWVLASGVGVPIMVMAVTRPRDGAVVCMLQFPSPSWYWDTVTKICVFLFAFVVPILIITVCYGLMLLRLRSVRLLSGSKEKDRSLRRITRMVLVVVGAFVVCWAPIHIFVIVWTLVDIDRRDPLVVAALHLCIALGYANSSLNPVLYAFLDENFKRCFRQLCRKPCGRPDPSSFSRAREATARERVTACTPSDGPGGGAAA
T5 sequence (P33032 whole entry): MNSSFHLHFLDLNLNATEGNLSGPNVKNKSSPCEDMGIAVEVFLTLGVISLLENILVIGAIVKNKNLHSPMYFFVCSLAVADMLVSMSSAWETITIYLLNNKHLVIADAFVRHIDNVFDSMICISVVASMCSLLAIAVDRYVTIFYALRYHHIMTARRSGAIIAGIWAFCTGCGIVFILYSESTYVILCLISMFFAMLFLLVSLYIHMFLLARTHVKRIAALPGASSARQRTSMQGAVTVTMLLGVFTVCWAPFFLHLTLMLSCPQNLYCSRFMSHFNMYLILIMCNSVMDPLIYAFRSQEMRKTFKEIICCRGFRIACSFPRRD
T10 sequence (P41146 whole entry): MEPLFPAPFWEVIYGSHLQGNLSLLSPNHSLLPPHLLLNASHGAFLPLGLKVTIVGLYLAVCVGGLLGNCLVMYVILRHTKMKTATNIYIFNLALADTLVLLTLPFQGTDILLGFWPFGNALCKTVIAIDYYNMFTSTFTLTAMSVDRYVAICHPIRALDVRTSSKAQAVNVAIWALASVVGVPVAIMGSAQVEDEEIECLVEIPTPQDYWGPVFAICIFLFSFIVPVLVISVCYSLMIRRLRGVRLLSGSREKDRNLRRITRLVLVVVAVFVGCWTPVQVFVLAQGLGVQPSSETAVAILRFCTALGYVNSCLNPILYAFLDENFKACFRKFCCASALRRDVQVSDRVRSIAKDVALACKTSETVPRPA
T6 sequence (Q99705 whole entry): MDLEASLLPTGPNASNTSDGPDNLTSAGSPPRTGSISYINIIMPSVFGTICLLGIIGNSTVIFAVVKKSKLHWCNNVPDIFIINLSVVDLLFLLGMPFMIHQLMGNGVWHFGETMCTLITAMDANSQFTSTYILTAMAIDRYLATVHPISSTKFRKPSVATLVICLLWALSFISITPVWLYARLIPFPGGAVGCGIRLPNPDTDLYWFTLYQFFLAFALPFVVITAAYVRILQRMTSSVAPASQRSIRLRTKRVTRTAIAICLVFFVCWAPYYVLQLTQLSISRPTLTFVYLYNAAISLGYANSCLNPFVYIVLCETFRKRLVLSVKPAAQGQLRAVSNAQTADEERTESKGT
T4 sequence (P32245 whole entry): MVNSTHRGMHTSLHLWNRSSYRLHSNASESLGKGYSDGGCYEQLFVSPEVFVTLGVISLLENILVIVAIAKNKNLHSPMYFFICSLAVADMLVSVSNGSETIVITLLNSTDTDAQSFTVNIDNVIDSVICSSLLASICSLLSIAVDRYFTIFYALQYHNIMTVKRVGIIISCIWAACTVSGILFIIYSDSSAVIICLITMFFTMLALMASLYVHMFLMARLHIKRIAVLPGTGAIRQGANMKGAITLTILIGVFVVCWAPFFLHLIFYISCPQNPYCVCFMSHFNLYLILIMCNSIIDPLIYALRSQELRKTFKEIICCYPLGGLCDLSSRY
T3 sequence (P41968 whole entry): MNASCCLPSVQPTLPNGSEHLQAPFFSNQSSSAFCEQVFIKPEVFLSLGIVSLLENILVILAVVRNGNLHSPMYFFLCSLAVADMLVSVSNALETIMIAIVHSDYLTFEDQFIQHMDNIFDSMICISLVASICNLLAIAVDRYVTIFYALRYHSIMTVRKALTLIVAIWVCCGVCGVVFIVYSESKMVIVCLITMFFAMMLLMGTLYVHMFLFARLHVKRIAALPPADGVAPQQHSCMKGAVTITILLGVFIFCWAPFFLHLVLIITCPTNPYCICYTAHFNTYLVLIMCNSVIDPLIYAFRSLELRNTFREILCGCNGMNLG
T7 sequence (P35372 whole entry): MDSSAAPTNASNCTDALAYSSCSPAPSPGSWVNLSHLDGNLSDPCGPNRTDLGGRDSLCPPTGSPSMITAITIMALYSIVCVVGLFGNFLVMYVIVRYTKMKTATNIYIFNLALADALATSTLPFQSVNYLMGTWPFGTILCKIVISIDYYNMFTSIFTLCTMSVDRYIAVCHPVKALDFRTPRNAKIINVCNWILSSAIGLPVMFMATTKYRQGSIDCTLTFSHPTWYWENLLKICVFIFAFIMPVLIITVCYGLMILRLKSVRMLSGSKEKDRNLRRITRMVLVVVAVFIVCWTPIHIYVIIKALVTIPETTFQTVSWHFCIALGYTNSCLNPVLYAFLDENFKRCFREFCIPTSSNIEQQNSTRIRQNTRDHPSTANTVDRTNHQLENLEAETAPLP

COCC1OC(OCCc2ccccc2)C(NC(=O)CN)C(OCc2ccc(-c3ccccc3)cc2)C1O (stereo not shown) [compound 224]
A1: inhibition of radioligand binding (Human δ-opioid (DOP); FlashPlate): − (“−” indicates less than 50% inhibition at 10 μM) | A2: inhibition of radioligand binding (Human κ-Opioid (KOP); filtration): − (“−” indicates less than 50% inhibition at 10 μM) | A3: inhibition of radioligand binding (Human Melanocortin (MC3); FlashPlate): − (“−” indicates less than 50% inhibition at 10 μM) | A4: inhibition of radioligand binding (Human Melanocortin (MC4); FlashPlate): − (“−” indicates less than 50% inhibition at 10 μM) | A5: inhibition of radioligand binding (Human melanocortin (MC5); FlashPlate): − (“−” indicates less than 50% inhibition at 10 μM) | A6: inhibition of radioligand binding ([1]; [125I]-S36057, FlashPlate): − (“−” indicates less than 50% inhibition at 10 μM) | A7: inhibition of radioligand binding (Human μ-opioid (MOP); FlashPlate): − (“−” indicates less than 50% inhibition at 10 μM) | A8: inhibition of radioligand binding (Human neurokinin (NK1); filtration): + (“+” indicates greater than 50% inhibition at 10 μM) | A9: inhibition of radioligand binding ([2]; FlashPlate): − (“−” indicates less than 50% inhibition at 10 μM) | A10: inhibition of radioligand binding (Human opioid (ORL1); FlashPlate): − (“−” indicates less than 50% inhibition at 10 μM) | A11: inhibition of radioligand binding (Mouse urotensin (mUR2); FlashPlate): − (“−” indicates less than 50% inhibition at 10 μM)

COC[C@H]1OC(OCc2ccc3ccccc3c2)[C@H](NC(=O)CCCN)[C@@H](OCc2ccc(-c3ccccc3)cc2)[C@@H]1O (stereo partly shown) [compound 337]
A1: inhibition of radioligand binding, human δ-opioid (DOP) (Human δ-opioid (DOP)): − (“−” indicates less than 50% inhibition at 10 μM) | A2: inhibition of radioligand binding, human κ-opioid (KOP) (Human κ-Opioid (KOP)): − (“−” indicates less than 50% inhibition at 10 μM) | A3: inhibition of radioligand binding, human melanocortin (MC3) (Human Melanocortin (MC3)): − (“−” indicates less than 50% inhibition at 10 μM) | A4: inhibition of radioligand binding, human melanocortin (MC4) (Human Melanocortin (MC4)): − (“−” indicates less than 50% inhibition at 10 μM) | A5: inhibition of radioligand binding, human melanocortin (MC5) (Human melanocortin (MC5)): + (“+” indicates greater than 50% inhibition at 10 μM) | A6: inhibition of radioligand binding, human melanin-concentrating hormone (MCH1) [1]: + (“+” indicates greater than 50% inhibition at 10 μM) | A7: inhibition of radioligand binding, human μ-opioid (MOP) (Human μ-opioid (MOP)): + (“+” indicates greater than 50% inhibition at 10 μM) | A8: inhibition of radioligand binding, human neurokinin (NK1) (Human neurokinin (NK1)): + (“+” indicates greater than 50% inhibition at 10 μM) | A9: inhibition of radioligand binding, human neuropeptide Y (NPY-Y1) [2]: − (“−” indicates less than 50% inhibition at 10 μM) | A10: inhibition of radioligand binding, human opioid (ORL1) (Human opioid (ORL1)): − (“−” indicates less than 50% inhibition at 10 μM) | A11: inhibition of radioligand binding, mouse urotensin (mUR2) (Mouse urotensin (mUR2)): − (“−” indicates less than 50% inhibition at 10 μM)

NCCCC(=O)NC1C(OCc2ccc(Cl)cc2)OC(COCc2ccc3ccccc3c2)C(O)C1OCc1ccc(Cl)cc1 (single isomer, unassigned) [compound 490]
A1: inhibition of radioligand binding, human δ-opioid (DOP) (Human δ-opioid (DOP)): − (“−” indicates less than 50% inhibition at 10 μM) | A2: inhibition of radioligand binding, human κ-opioid (KOP) (Human κ-Opioid (KOP)): − (“−” indicates less than 50% inhibition at 10 μM) | A3: inhibition of radioligand binding, human melanocortin (MC3) (Human Melanocortin (MC3)): + (“+” indicates greater than 50% inhibition at 10 μM) | A4: inhibition of radioligand binding, human melanocortin (MC4) (Human Melanocortin (MC4)): + (“+” indicates greater than 50% inhibition at 10 μM) | A5: inhibition of radioligand binding, human melanocortin (MC5) (Human melanocortin (MC5)): + (“+” indicates greater than 50% inhibition at 10 μM) | A6: inhibition of radioligand binding, human melanin-concentrating hormone (MCH1) ([1]; 10 µM): + (“+” indicates greater than 50% inhibition at 10 μM) | A7: inhibition of radioligand binding, human μ-opioid (MOP) (Human μ-opioid (MOP)): + (“+” indicates greater than 50% inhibition at 10 μM) | A8: inhibition of radioligand binding, human neurokinin (NK1) (Human neurokinin (NK1)): + (“+” indicates greater than 50% inhibition at 10 μM) | A9: inhibition of radioligand binding, human neuropeptide Y (NPY-Y1) [2]: − (“−” indicates less than 50% inhibition at 10 μM) | A10: inhibition of radioligand binding, human opioid (ORL1) (Human opioid (ORL1)): + (“+” indicates greater than 50% inhibition at 10 μM) | A11: inhibition of radioligand binding, mouse urotensin (mUR2) (Mouse urotensin (mUR2)): − (“−” indicates less than 50% inhibition at 10 μM)

NCCC(=O)NC1C(OCc2ccc(Cl)cc2)OC(COCc2ccccc2)C(O)C1OCc1ccccc1 (single isomer, unassigned) [compound 486]
A1: inhibition of radioligand binding, human δ-opioid (DOP) (Human δ-opioid (DOP)): − (“−” indicates less than 50% inhibition at 10 μM) | A2: inhibition of radioligand binding, human κ-opioid (KOP) (Human κ-Opioid (KOP)): − (“−” indicates less than 50% inhibition at 10 μM) | A3: inhibition of radioligand binding, human melanocortin (MC3) (Human Melanocortin (MC3)): − (“−” indicates less than 50% inhibition at 10 μM) | A4: inhibition of radioligand binding, human melanocortin (MC4) (Human Melanocortin (MC4)): − (“−” indicates less than 50% inhibition at 10 μM) | A5: inhibition of radioligand binding, human melanocortin (MC5) (Human melanocortin (MC5)): − (“−” indicates less than 50% inhibition at 10 μM) | A6: inhibition of radioligand binding, human melanin-concentrating hormone (MCH1) [1]: − (“−” indicates less than 50% inhibition at 10 μM) | A7: inhibition of radioligand binding, human μ-opioid (MOP) (Human μ-opioid (MOP)): − (“−” indicates less than 50% inhibition at 10 μM) | A8: inhibition of radioligand binding, human neurokinin (NK1) (Human neurokinin (NK1)): + (“+” indicates greater than 50% inhibition at 10 μM) | A9: inhibition of radioligand binding, human neuropeptide Y (NPY-Y1) [2]: − (“−” indicates less than 50% inhibition at 10 μM) | A10: inhibition of radioligand binding, human opioid (ORL1) (Human opioid (ORL1)): − (“−” indicates less than 50% inhibition at 10 μM) | A11: inhibition of radioligand binding, mouse urotensin (mUR2) (Mouse urotensin (mUR2)): − (“−” indicates less than 50% inhibition at 10 μM)

CSC1OC(COCc2ccc(Cl)cc2)C(O)C(OCc2ccc3ccccc3c2)C1NC(=O)CCNC(=N)N (stereo not shown) [compound 309]
A1: inhibition of radioligand binding, human δ-opioid (DOP) (Human δ-opioid (DOP)): − (“−” indicates less than 50% inhibition at 10 μM) | A2: inhibition of radioligand binding, human κ-opioid (KOP) (Human κ-Opioid (KOP)): − (“−” indicates less than 50% inhibition at 10 μM) | A3: inhibition of radioligand binding, human melanocortin (MC3) (Human Melanocortin (MC3)): − (“−” indicates less than 50% inhibition at 10 μM) | A4: inhibition of radioligand binding, human melanocortin (MC4) (Human Melanocortin (MC4)): − (“−” indicates less than 50% inhibition at 10 μM) | A5: inhibition of radioligand binding, human melanocortin (MC5) (Human melanocortin (MC5)): + (“+” indicates greater than 50% inhibition at 10 μM) | A6: inhibition of radioligand binding, human melanin-concentrating hormone (MCH1) [1]: − (“−” indicates less than 50% inhibition at 10 μM) | A7: inhibition of radioligand binding, human μ-opioid (MOP) (Human μ-opioid (MOP)): − (“−” indicates less than 50% inhibition at 10 μM) | A8: inhibition of radioligand binding, human neurokinin (NK1) (Human neurokinin (NK1)): + (“+” indicates greater than 50% inhibition at 10 μM) | A9: inhibition of radioligand binding, human neuropeptide Y (NPY-Y1) [2]: − (“−” indicates less than 50% inhibition at 10 μM) | A10: inhibition of radioligand binding, human opioid (ORL1) (Human opioid (ORL1)): − (“−” indicates less than 50% inhibition at 10 μM) | A11: inhibition of radioligand binding, mouse urotensin (mUR2) (Mouse urotensin (mUR2)): − (“−” indicates less than 50% inhibition at 10 μM)
